Here are results for one molecule from patent publication US6710075B2, “Therapeutic compounds and methods” (The Government of the State of Sarawak, Malaysia, priority 2000, dated 2004).

The term IC50 denotes the point on the concentration scale where inhibition reaches its midpoint. Read a high IC50 as lower potency. The term GI50 denotes the concentration giving 50% growth inhibition.

Series [1] has as its system A549 cells. The series can be described thus: Effect on camptothecin- and paclitaxel-induced cytotoxicity, YOYO-1 exclusion. It is filed as cell-based, human. The conditions noted are these: A549, 10 nM Compound A, 3 days, drugs at up to 2000-fold excess. As to the method:
A549 cells in 96 well plates were cultured for 3 days in the presence or absence of 10 nM Compound A together with the indicated concentrations of (A) camptothecin or (B) paclitaxel. Loss of membrane integrity was then assessed by the addition of the fluorescent DNA-binding dye YOYO-1 and the increased fluorescence accompanying cell death measured using a fluorescent plate reader.
To further examine the cell cycle effects of Compound A a cytostatic concentration of this compound was combined together with other anti-cancer agents known to act at specific points in the cell cycle to see if Compound A could perturb their cell cycle-dependent effects. Cell viability was assayed after 3 days by measuring exclusion of the fluorescent DNA-binding dye YOYO-1. (Becker et al., Anal Biochem, 1994, 221(1):78-84). A549 cells were treated with 10 nM non-cytotoxic dose of Compound A in the presence of increasing concentrations of camptothecin and paclitaxel. Camptothecin is an inhibitor of DNA topoisomerase 1, an enzyme required for DNA replication, and results in pertubation of the S phase of the cell cycle with subsequent cell death due to activation of an S phase checkpoint (Darzynkiewicz et al., Ann N Y Acad Sci, 1996, 803:93-100). […]

Series [2] deals with A549 cells. The series can be described thus: Proliferation of A549 cells, haemocytometer counting of trypan blue stained cells. The settings on record: for cell death: after 9 days. It is filed as cell-based, human. As to the method: A549 cells were seeded at ˜10,000 cells/well and cultured in the presence of the indicted concentrations of Compound A or paclitaxel. Cells were collected and the viable cell number determined by haemocytometer counting of trypan blue stained cells at the various times. The results are the averages ±SEM of triplicate cultures.
The cytostatic effect of Compound A on the proliferation of A549 cells was confirmed by directly counting the number of cells at intervals over a nine day period (FIG. 3). When compared to untreated cells 10 nM Compound A prevented the increase in cell number by more than 95% with fewer than 10% dead cells observed at this time (measured by trypan blue exclusion). Thus, under these conditions the decreased cell number can not simply be accounted for by increased cell death. […] At the higher concentrations of 50 nM and 250 nM Compound A had cytotoxic effects and increased cell death to 86% and 100% respectively after 9 days and accounts for the decline in cell number to levels below the original staring number at this time. At the non-cytotoxic concentration of 10 nM, Compound A has a rapid and potent cytostatic effect on A549 cells.

The test system of series [3] is THP-1 cells. The series can be described thus: DNA synthesis, [14C]-thymidine uptake, THP-1 cells. The class given is cell-based, human. The settings on record: 48 hours. The source says:
(§1) (a) Compounds A and B were identified from a bark sample of Aglaia leptantha through their ability to inhibit production of Tumour Necrosis Factor-α (TNF-α) by THP-1 human promonocytic leukemia cells (Tsuchiya, et al, Int. J. Cancer, 1980, 26(2):171-6) activated with lipopolysaccharide (LPS). Table 4 summarises the results comparing the activity of Compounds A and B for inhibition of TNF-α production to their effects on general cell metabolism measured using WST-1 reduction, DNA synthesis and protein synthesis assays for THP-1 cells. […] For comparison, the effects of Compounds A and B on A549 lung epithelial carcinoma cells (Leiber et al, Int. J. Cancer, 1976, 17(1)-62-70) were also measured and the data is also included in Table 4.

For series [4], the system named is A549 cells. The series can be described thus: Reversibility of cytostatic effect in A549 cells after removal of compound. It is filed as cell-based, human. The settings on record: A549, 10 nM for 5 days, then 4 days without compound. As to the method:
A549 cells were seeded at ˜10,000 cells/well and cultured in the presence of the indicted concentrations of Compound A or paclitaxel and the viable cell numbers determined by haemocytometer counting of trypan blue stained cells at the various times. On day 5 some of the cells were washed, resuspended in fresh medium lacking the various treatments and cultured for another 4 days prior to counting.
The reversibility of the effects of Compound A was determined. For this, A549 cells remained untreated or were cultured in the presence of various concentrations of Compound A or with paclitaxel for 5 days prior to removal of the compounds and the cells cultured for a further 4 days prior to determining cell number (FIG. 6). […] The effects of treatments which were deleterious to the cells, such as higher concentrations of Compound A or the presence of paclitaxel, were not reversed upon their removal.

In series [5] the test system is THP-1 cells. Put plainly: Protein synthesis, [14C]-leucine uptake, THP-1 cells. The settings on record: 48 hours. The class given is cell-based, human.
From the text: as §1

Series [6] concerns A549 cells. The series can be described thus: Protein synthesis, [14C]-leucine uptake, A549 cells. The settings on record: Homo sapiens, A549, 72 h. It is filed as cell-based, human.
From the text: as §1

The subject of series [7] is PC3 human prostate tumour cells. The series can be described thus: Mouse xenograft tumour model. It is filed as in vivo. The settings on record: 3 mg/kg intraperitoneal three times a week. As to the method: Athymic Balb/c nude mice (Rygard and Povisen, 1969, Acta Pathol Microbiol Scand, 77: 758) were inoculated subcutaneously in the dorsal flank with 2×10^6 PC3 cells. Compound A was administered (3 mg/kg) after eight days when the tumours became palpable by intraperitoneal injection three times a week. Compound A was first solubilized in ethanol then mixed 1:1 with cremaphore and diluted in saline for injection. Control animals were treated in an analogous manner with the same vehicle but lacking Compound A. (A) Effect of Compound A on mean tumour volume. Tumour volumes were measured using a micrometer caliper at the indicated times. The data represents mean tumour volume ±SEM (B) Effect of Compound A on mean tumour mass. At the end of the experiment (29 days post inoculation of PC3 cells) the mice were sacrificed, the tumours excised and then weighed. The data represents mean tumour weight ±SEM.
The ability of Compound A to inhibit growth of human tumour cells in vivo was assessed using male athymic mice injected subcutaneously in the dorsal flank region with 2×10^6 PC3 human prostate tumour cells. Compound A administration (3 mg/kg) by intraperitoneal injection commenced after eight days once the PC3 tumour was palpable and continued three times a week until 29 days after the initial inoculation of the tumour cells. At this time all mice were killed and tumours excised and weighed.

For series [8], the system named is A549. The series can be described thus: Cytostatic activity, relative cell number by YOYO-1 DNA dye. It is filed as cell-based, human. As to the method: (b) Compound A was assessed for cytotoxic and cytostatic activity against a panel of cell lines derived from a variety of human tumour types in addition to THP-1 and A549 cells (Table 5). These included K562 leukemic cells (Lozzio and Lozzio, 1975, Blood 45:321-34), PC3 prostate tumour cells (Kaighn et al., 1979, Invest. Urol. 17:16-23) and SF268 glioblastoma cells (Westphal et al, 1985, Biochem. Biophys. Res. Commun., 132:284-9). […] However, the cytotoxic potency of Compound A increased dramatically after 6 days of culture for the K562, A549 and SF268 cells.

Read-outs that look alike come from different tables or passages of the source.

Regarding `COC(=O)[C@H]1[C@@H](O)[C@@]2(O)c3c(OC)cc(OC4OC(C(O)CO)COC4OC)cc3O[C@@]2(c2ccc(OC)cc2)[C@@H]1c1ccccc1` (single isomer, unassigned) [Compound A], the “effect on cytotoxicity of camptothecin and paclitaxel” value in series [1] was “significantly reduced the cytotoxic effects of both camptothecin and paclitaxel”. The “dead cells (trypan blue exclusion)” value in series [2] (A549, 10 nM) is reported as < 10%. Also, the “prevention of the increase in cell number compared to untreated cells” value in series [2] (A549, 10 nM, nine day period) is “more than 95%”. In addition, the cell death in series [2] (A549, 50 nM) is reported as 86%; in series [2] (A549, 250 nM), 100%. Moreover, the IC50 in series [3] came out at 15 nM; in series [5], 60 nM; in series [6], 20 nM. For the same molecule, in series [4], the “cell number after removal of compound” value is “over a five-fold increase in cell number”. In addition, the “population doublings after removal of compound” value in series [4] was 2-3. Also, in series [7] (29 days post inoculation), the “reduction of mean tumour weight” value was ~60%. For the same molecule, the mean tumour volume entry in series [7] (vs vehicle) was “greatly reduced increase in mean tumour volume”. In addition, the GI50 was 7 nM in series [8] (Homo sapiens, A549, 72 h, read-out: GI50 (3 day cultures), A549, lung) and 13 nM in series [8] (read-out: GI50 (3 day cultures), A549, lung).
